Results: patent US6680326B2, “Polycyclic compounds” (Hoffmann-La Roche Inc., priority 2001, dated 2004)
Values after ≈ are worked out from the molar mass of the structure shown.

What follows are compounds tested on HCT116 cell line (colorectal cancer) (assay: Anti-proliferative activity assay (WST-8, 4 days)). Conditions: Homo sapiens, HCT-116, 96 h; in vitro growth of HCT116 cells, 4 days incubation, WST-8 readout.
Assay type: cell-based
Protocol: A single suspension of tumor cells was inoculated to the serially diluted 96-well microtestplate. Then the testplate was incubated in the 5% CO2 ambience at 37° C. for 4 days (2-3×10^3 cells/well). The degree of cell growth in a monolayer was measured by using WST-8 (Dojindo, Japan). IC50 values of the polycyclic compounds concerned against tumor cells were calculated as the concentration of drug yielding 50% OD of the control growth. The IC50 value measures the drug concentration for 50% inhibition of the growth of tumor cells in vitro as compared to the control.
The anti-tumor activity of polycyclic compounds of the formula [I] against in vitro growth of HCT116 cell line (colorectal cancer) is summarized in Table 1.

Compared with CN(C)CCNc1nc2cc(O)ccc2c2c1C(=O)c1cnccc1-2 [Example 41, 6-(2-dimethylamino-ethylamino)-3-hydroxy-5,9-diaza-benzo[c]fluoren-7-one], CN(C)CCNc1nc2cc(O)ccc2c2c1C(=O)c1ccccc1-2 [Reference compound, 6-(2-dimethylamino-ethylamino)-3-hydroxy-7H-indeno[2,1-c]quinolin-7-one, reference compound] is 34-fold higher in IC50: 0.35 ng/mL (≈ 0.00105 µM) for the first, 12 ng/mL (≈ 0.036 µM) for the second.

First: Cc1c(O)ccc2c3c(c(NCCN(C)C)nc12)C(=O)c1ccncc1-3 [Example 45, 6-(2-dimethylamino-ethylamino)-3-hydroxy-4-methyl-5,10-diaza-benzo[c]fluoren-7-one]
Second: Cc1c(O)ccc2c3c(c(NCCN(C)C)nc12)C(=O)c1cnccc1-3 [Example 46, 6-(2-dimethylamino-ethylamino)-3-hydroxy-4-methyl-5,9-diaza-benzo[c]fluoren-7-one]
The IC50 of the first is 1.8-fold higher: 3.9 ng/mL (≈ 0.0112 µM) for the first, 2.2 ng/mL (≈ 0.00631 µM) for the second.

Cc1cc2c(cn1)-c1c(c(NCCN(C)C)nc3cc(O)ccc13)C2=O [Example 47, 6-(2-dimethylamino-ethylamino)-3-hydroxy-9-methyl-5,10-diaza-benzo[c]fluoren-7-one] showed an IC50 of 3.9 ng/mL (≈ 0.0112 µM).
